Measurements taken from the NIST ThermoML archive (doi:10.1021/je900290w).
± gives the expanded uncertainty stated by the source.

Assay: cn = amount concentration of the nth substance listed, in mol/dm3

CCCCCCCCCCCCCCn1cc[n+](C)c1.[Br-] [1-methyl-3-tetradecylimidazolium bromide] + O
surface tension liquid-gas [mN/m]
Details	c1 = 5e-05	c1 = 0.0001	c1 = 0.0003	c1 = 0.0005	c1 = 0.001	c1 = 0.002	c1 = 0.004	c1 = 0.006	c1 = 0.008	c1 = 0.01
278.15 K	64.69 ± 3.2	64.07 ± 3.2	61.72 ± 3.1	55.17 ± 2.8	50.32 ± 2.6	41.28 ± 2.2	38.44 ± 2	38.68 ± 2	38.88 ± 2.1	38.88 ± 2.1
288.15 K	62.69 ± 3.1	62.07 ± 3.1	59.72 ± 3	53.17 ± 2.7	48.32 ± 2.5	40.28 ± 2.1	37.94 ± 2	38.18 ± 2	38.38 ± 2	38.38 ± 2
298.15 K	61.26 ± 3.1	60.88 ± 3	57.1 ± 2.9	52.79 ± 2.7	47.37 ± 2.4	39.48 ± 2.1	37.81 ± 2	37.73 ± 2	37.57 ± 2	37.57 ± 2
308.15 K	59.5 ± 3	58.59 ± 2.9	54.93 ± 2.8	51.51 ± 2.6	45.26 ± 2.3	39.15 ± 2.1	37.81 ± 2	37.51 ± 2	37.67 ± 2	37.6 ± 2
318.15 K	57.16 ± 2.9	55.92 ± 2.8	52.9 ± 2.7	49.56 ± 2.5	43.88 ± 2.3	39.15 ± 2.1	37.12 ± 2	37.13 ± 2	37.12 ± 2	37.13 ± 2
328.15 K	54.16 ± 2.7	52.7 ± 2.7	50.17 ± 2.6	46.39 ± 2.4	42.75 ± 2.2	38.28 ± 2	36.2 ± 1.9	36.32 ± 1.9	36.58 ± 1.9	36.45 ± 1.9

CCCCCCCCCCCCn1cc[n+](C)c1.[Br-] [1-dodecyl-3-methylimidazolium bromide] + O
surface tension liquid-gas [mN/m]
Details	c1 = 0.0001	c1 = 0.0005	c1 = 0.0015	c1 = 0.005	c1 = 0.01	c1 = 0.02	c1 = 0.03	c1 = 0.04	c1 = 0.05
278.15 K	64.79 ± 3.2	61.21 ± 3.1	56.82 ± 2.9	45.33 ± 2.3	37.64 ± 2	37.72 ± 2	37.73 ± 2	37.53 ± 2	37.59 ± 2
288.15 K	62.93 ± 3.1	60.86 ± 3	56.68 ± 2.9	44.27 ± 2.3	37.52 ± 2	37.63 ± 2	37.41 ± 2	37.77 ± 2	37.61 ± 2
298.15 K	62.21 ± 3.1	59.84 ± 3	55.19 ± 2.8	43.81 ± 2.3	37.45 ± 2	37.41 ± 2	37.15 ± 2	37.23 ± 2	37.26 ± 2
308.15 K	60.48 ± 3	58.62 ± 2.9	55.18 ± 2.8	44.47 ± 2.3	37.18 ± 2	37.55 ± 2	37.38 ± 2	37.42 ± 2	37.23 ± 2
318.15 K	58.84 ± 2.9	56.56 ± 2.9	53.88 ± 2.7	43.89 ± 2.3	36.92 ± 2	37.12 ± 2	37.47 ± 2	37.3 ± 2	37.06 ± 2
328.15 K	57.61 ± 2.9	55.07 ± 2.8	50.63 ± 2.6	42.36 ± 2.2	37.64 ± 2	37.03 ± 2	37.16 ± 2	37.06 ± 2	37.09 ± 2
